# In patent US10330672B2, “Method for screening activator of mitochondrial activity” (INTELLIGENT SYNTHETIC BIOLOGY CENTER, priority 2015, dated 2019):
# Columns and labels:
# INS-1 cells [1] = test: Mitochondrial membrane potential by TMRM staining and FACS in INS-1 cells; assay type: cell-based; details: 10 μM, 2 hours, TMRM staining, vs DMSO control
# Protocol: (§1) Initially, the INS-1 cells, which are insulin-secreting cells, were cultured in a cell incubator (37° C., 5% CO2, RPMI medium, 10% FBS), were treated with 10 μM of gypenoside 75, ginsenoside F1, ginsenoside Rg3, ginsenoside Rb2, or ginsenoside Rb3 for 2 hours, and the intracellular ATP amount and mitochondrial membrane potential were measured. For the control group, cells treated with DMSO were used.
# In the final stage, the mitochondrial membrane potential was measured by tetramethylrhodamine methyl ester (TMRM) staining. As the level of the TMRM staining increases proportionately to the mitochondrial membrane potential, the intracellular mitochondrial membrane potential can be measured by measuring the level of the TMRM staining.
# Specifically, the INS-1 cells treated with each of the above materials were stained with TMRM, and applied to fluorescence-activated cell sorting (FACS). Then, the level of the staining was quantified, analyzed, and compared (FIG. 2).
# INS-1 cells [2] = test: Intracellular ATP amount by luciferase assay in INS-1 cells; assay type: cell-based; details: 10 μM, 2 hours, vs DMSO control
# Protocol: as §1
# Next, the amount of ATP was measured using luciferase. As the fluorescence by activation of luciferase depends on the amount of ATP, the intracellular ATP amount can be measured by measuring the level of the fluorescence emission.
# Specifically, the INS-1 cells treated with each of the above materials were lysed through freezing-thawing and ultrasonication treatments to obtain a cell lysate. Luciferase and luciferin were added to the obtained cell lysate above to induce fluorescence, and the levels of the fluorescence were quantified and compared (FIG. 1).
structure (smiles),measurement,setting,value
CC(C)=CCC[C@](C)(O[C@@H]1O[C@H](CO[C@@H]2O[C@H](CO)[C@@H](O)[C@H](O)[C@H]2O)[C@@H](O)[C@H](O)[C@H]1O)[C@H]1CC[C@]2(C)[C@@H]1[C@H](O)C[C@@H]1[C@@]3(C)CC[C@H](O)C(C)(C)[C@@H]3CC[C@]12C [gypenoside 75],increase of intracellular mitochondrial membrane potential compared with the control group,INS-1 cells [1],40%
same,increase of intracellular ATP amount compared with the control group,INS-1 cells [2],50%
